Data reported in ChEMBL document CHEMBL3108745, “Synthesis and structure-activity relationship of 3-hydroxypyridine-2-thione-based histone deacetylase inhibitors” (J Med Chem, 2013).
Active and inactive are the calls of the source. No cut-off for these calls is given here.

Key:
[1] = molecular target: Collagenase 3 (Homo sapiens) (UniProt P45452); assay: Inhibition of MMP-13 (unknown origin) using omniMMP as fluorogenic substrate at 10 uM preincubated for 30 mins followed by substrate addition measured after 30 mins by fluorescence assay
Vero = assay: Cytotoxicity against African green monkey Vero cells assessed as growth inhibition after 72 hrs by MTS assay; format: cell-based; settings: Chlorocebus sabaeus
LNCaP [2] = assay: Potency index, ratio of tubastatin A IC50 to compound IC50 for human LNCAP cells; format: functional
[3] = molecular target: Matrix metalloproteinase-9 (Homo sapiens) (UniProt P14780); assay: Inhibition of MMP-9 (unknown origin) using omniMMP as fluorogenic substrate at 10 uM preincubated for 30 mins followed by substrate addition measured after 30 mins by fluorescence assay
DU-145 = assay: cells; format: functional, cell-based; settings: Homo sapiens, DU-145, 72 h
Description: Cytotoxicity against androgen-independent human DU145 cells assessed as growth inhibition after 72 hrs by MTS assay

Histone deacetylase 8 = molecular target: T1, Histone deacetylase 8 (Homo sapiens, UniProt Q9BY41); assay: Inhibition of HDAC8 catalytic domain (unknown origin) expressed in Escherichia coli BL21 (DE3) using GRKacFGC as substrate after 60 mins by SAMDI mass spectrometric analysis
T1 sequence (Q9BY41 whole entry): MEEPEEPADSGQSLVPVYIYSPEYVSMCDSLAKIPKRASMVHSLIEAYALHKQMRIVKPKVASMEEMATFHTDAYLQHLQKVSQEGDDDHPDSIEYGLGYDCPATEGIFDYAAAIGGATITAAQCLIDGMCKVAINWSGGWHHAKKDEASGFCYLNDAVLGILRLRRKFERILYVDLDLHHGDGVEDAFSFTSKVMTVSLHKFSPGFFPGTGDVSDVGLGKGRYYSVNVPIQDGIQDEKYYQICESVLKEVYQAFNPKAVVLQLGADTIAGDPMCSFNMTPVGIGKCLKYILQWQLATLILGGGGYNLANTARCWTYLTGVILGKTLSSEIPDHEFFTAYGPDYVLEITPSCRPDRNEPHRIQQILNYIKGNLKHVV

[4] = Cytotoxicity against human Jurkat gamma1 cells assessed as growth inhibition after 72 hrs by MTS assay; format: functional, cell-based
Histone deacetylase 2 = Histone deacetylase 2 (Homo sapiens, UniProt Q92769); assay: Inhibition of HDAC2 (unknown origin) expressed in Escherichia coli BL21 (DE3) using GRKacYGC as substrate after 60 mins by SAMDI mass spectrometric analysis
[5] = molecular target: Histone deacetylase 1 (Homo sapiens) (UniProt Q13547); assay: Inhibition of HDAC1 (unknown origin) expressed in Escherichia coli BL21 (DE3) using GRKacFGC as substrate at 10 uM after 60 mins by SAMDI mass spectrometric analysis relative to control
[6] = molecular target: Matrix metalloproteinase-14 (Homo sapiens) (UniProt P50281); assay: Inhibition of MMP-14 (unknown origin) using omniMMP as fluorogenic substrate at 10 uM preincubated for 30 mins followed by substrate addition measured after 30 mins by fluorescence assay
LNCaP [7] = assay: cells; settings: Homo sapiens, 72 h
Description: Cytotoxicity against androgen-dependent human LNCAP cells assessed as growth inhibition after 72 hrs by MTS assay

Jurkat = assay: cells; format: functional, cell-based; settings: Homo sapiens, 72 h
Description: Cytotoxicity against human Jurkat cells assessed as growth inhibition after 72 hrs by MTS assay

[8] = Aqueous solubility of the compound […] at room temperature by UV-vis spectrophotometric analysis; format: physicochemical
[9] = molecular target: T2, Protein deacetylase HDAC6 (Homo sapiens, UniProt Q9UBN7); assay: Inhibition of HDAC6 (unknown origin) expressed in Escherichia coli BL21 (DE3) using GRKacYGC as substrate after 60 mins by SAMDI mass spectrometric analysis
T2 sequence (Q9UBN7 whole entry): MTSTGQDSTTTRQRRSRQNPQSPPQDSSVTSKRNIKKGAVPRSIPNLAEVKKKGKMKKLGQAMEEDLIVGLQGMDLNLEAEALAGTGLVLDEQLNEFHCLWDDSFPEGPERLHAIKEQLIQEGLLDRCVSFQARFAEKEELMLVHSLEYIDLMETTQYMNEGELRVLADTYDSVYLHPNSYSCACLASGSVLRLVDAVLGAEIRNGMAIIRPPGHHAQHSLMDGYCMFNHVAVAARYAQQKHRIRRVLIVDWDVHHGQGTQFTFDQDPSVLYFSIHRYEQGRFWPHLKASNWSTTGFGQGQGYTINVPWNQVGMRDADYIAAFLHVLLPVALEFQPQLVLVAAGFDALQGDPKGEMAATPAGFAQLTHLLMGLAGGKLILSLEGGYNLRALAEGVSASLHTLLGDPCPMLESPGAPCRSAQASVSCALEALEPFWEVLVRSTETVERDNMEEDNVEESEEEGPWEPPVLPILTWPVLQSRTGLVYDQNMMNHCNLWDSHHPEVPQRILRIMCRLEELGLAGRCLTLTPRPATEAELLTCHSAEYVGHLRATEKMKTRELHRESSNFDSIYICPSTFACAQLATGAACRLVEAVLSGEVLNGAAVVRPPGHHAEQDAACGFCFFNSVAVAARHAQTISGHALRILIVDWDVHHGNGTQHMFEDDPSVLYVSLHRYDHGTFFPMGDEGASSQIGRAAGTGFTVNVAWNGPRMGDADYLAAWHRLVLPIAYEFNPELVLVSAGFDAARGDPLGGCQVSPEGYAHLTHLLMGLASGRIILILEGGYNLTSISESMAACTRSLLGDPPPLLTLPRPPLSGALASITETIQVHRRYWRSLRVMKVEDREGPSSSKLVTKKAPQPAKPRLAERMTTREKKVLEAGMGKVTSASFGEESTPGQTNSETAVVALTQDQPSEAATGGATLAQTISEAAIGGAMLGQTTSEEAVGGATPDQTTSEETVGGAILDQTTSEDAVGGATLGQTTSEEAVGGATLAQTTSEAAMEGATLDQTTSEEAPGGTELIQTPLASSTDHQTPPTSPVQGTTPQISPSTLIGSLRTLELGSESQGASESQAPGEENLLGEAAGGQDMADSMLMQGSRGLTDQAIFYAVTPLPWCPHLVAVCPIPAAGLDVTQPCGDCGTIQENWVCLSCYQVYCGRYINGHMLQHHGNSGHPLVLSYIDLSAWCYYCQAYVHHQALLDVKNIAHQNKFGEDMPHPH

[10] = molecular target: T3, Matrilysin (Homo sapiens) (UniProt P09237); assay: Inhibition of MMP-7 (unknown origin) using omniMMP as fluorogenic substrate at 10 uM preincubated for 30 mins followed by substrate addition measured after 30 mins by fluorescence assay
T3 sequence (whole entry): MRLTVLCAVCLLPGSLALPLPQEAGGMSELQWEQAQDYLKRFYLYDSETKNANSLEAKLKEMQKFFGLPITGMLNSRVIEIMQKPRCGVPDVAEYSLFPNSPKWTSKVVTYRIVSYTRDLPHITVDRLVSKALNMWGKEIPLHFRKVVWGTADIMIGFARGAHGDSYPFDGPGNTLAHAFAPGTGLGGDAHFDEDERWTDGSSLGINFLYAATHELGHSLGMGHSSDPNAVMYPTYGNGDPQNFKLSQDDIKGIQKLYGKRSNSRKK

[11] = molecular target: T4, Protein deacetylase HDAC6 (Homo sapiens) (UniProt Q9UBN7); assay: Inhibition of HDAC6 in human LNCAP cells assessed as increase in tubulin acetylation at 5.43 to 20 uM after 4 hrs by Western blotting analysis; format: cell-based
T4 sequence (whole entry): T2 sequence (Q9UBN7 whole entry)

[12] = molecular target: T5, Interstitial collagenase (Homo sapiens) (UniProt P03956); assay: Inhibition of MMP-1 (unknown origin) using omniMMP as fluorogenic substrate at 10 uM preincubated for 30 mins followed by substrate addition measured after 30 mins by fluorescence assay
T5 sequence (whole entry): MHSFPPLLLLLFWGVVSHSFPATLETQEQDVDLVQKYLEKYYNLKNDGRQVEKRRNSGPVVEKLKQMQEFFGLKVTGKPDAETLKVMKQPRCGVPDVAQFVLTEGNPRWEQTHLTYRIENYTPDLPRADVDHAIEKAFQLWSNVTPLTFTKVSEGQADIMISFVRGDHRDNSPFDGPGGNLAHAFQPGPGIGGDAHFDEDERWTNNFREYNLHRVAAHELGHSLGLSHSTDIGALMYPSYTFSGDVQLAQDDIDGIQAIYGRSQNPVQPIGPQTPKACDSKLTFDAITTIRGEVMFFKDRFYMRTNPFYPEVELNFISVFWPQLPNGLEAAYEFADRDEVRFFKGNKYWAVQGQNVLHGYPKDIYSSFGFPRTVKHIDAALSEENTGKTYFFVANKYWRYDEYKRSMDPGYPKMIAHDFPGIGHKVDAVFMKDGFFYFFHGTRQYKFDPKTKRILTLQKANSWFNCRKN

[13] = molecular target: Stromelysin-1 (Homo sapiens) (UniProt P08254); assay: Inhibition of MMP-3 (unknown origin) using omniMMP as fluorogenic substrate at 10 uM preincubated for 30 mins followed by substrate addition measured after 30 mins by fluorescence assay
[14] = molecular target: 72 kDa type IV collagenase (Homo sapiens) (UniProt P08253); assay: Inhibition of MMP-2 (unknown origin) using omniMMP as fluorogenic substrate at 10 uM preincubated for 30 mins followed by substrate addition measured after 30 mins by fluorescence assay
[15] = molecular target: T4, Protein deacetylase HDAC6 (Homo sapiens); assay: Inhibition of HDAC6 in human LNCAP cells assessed as increase in tubulin acetylation at 3.49 to 20 uM after 4 hrs by Western blotting analysis; format: cell-based

72 kDa type IV collagenase (Homo sapiens), sequence (P08253 110-660 limits assumed): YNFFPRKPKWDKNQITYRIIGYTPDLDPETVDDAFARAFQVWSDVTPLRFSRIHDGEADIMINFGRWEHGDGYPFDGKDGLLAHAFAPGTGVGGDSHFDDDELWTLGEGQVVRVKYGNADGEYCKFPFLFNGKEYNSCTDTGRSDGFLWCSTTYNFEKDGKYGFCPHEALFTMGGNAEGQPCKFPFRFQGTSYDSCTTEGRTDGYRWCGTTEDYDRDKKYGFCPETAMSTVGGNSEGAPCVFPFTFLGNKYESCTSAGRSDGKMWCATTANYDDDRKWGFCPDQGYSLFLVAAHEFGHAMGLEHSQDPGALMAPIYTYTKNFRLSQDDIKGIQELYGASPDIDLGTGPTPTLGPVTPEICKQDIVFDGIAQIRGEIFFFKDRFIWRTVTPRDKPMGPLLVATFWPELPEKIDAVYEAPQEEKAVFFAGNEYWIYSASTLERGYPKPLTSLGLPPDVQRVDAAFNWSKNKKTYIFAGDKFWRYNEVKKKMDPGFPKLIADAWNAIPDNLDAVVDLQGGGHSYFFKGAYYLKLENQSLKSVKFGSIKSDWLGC
Stromelysin-1 (Homo sapiens), sequence (P08254 100-477 limits assumed): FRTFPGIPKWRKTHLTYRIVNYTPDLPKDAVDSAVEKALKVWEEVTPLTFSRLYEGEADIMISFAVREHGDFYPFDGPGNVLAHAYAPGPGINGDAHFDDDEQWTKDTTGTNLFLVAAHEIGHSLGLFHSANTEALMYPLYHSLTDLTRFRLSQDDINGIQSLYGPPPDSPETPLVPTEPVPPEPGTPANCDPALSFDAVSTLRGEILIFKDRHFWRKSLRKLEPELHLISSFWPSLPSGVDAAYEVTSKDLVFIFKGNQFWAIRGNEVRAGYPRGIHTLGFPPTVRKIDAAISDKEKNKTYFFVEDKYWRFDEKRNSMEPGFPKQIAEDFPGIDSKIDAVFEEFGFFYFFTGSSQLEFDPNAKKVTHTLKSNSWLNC
Matrix metalloproteinase-9 (Homo sapiens), sequence (P14780 whole entry): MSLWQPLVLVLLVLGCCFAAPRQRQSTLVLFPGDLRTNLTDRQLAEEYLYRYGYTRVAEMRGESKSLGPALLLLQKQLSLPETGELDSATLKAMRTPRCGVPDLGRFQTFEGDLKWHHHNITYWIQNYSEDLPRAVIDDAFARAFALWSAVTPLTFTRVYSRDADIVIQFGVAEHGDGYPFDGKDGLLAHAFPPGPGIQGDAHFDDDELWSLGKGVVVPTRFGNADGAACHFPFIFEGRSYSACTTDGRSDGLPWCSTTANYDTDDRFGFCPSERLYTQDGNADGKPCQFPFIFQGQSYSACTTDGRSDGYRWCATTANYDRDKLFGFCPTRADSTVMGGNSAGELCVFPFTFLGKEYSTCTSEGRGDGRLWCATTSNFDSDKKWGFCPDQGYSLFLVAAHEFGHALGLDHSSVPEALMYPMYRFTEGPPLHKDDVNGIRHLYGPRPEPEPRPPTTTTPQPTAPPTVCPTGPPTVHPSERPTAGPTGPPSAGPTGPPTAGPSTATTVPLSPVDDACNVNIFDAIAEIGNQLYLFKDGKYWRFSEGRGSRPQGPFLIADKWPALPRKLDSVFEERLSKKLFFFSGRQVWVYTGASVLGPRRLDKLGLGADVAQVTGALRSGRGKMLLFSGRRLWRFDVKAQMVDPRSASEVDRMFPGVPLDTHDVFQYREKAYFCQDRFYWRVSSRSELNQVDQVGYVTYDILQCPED
Histone deacetylase 1 (Homo sapiens), sequence (Q13547 whole entry): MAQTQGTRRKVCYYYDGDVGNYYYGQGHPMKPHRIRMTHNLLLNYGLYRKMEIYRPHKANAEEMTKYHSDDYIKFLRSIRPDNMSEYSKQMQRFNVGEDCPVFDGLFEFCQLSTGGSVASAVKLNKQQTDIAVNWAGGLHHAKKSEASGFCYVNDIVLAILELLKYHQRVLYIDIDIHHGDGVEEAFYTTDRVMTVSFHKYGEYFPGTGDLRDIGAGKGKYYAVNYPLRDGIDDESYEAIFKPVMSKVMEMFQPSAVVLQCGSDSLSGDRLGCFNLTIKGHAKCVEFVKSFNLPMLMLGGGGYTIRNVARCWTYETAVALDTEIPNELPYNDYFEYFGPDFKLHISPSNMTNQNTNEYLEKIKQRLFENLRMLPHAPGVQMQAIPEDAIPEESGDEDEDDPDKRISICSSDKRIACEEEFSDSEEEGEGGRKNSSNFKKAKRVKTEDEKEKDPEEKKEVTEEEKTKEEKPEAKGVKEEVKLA
Histone deacetylase 2, sequence (Q92769 whole entry): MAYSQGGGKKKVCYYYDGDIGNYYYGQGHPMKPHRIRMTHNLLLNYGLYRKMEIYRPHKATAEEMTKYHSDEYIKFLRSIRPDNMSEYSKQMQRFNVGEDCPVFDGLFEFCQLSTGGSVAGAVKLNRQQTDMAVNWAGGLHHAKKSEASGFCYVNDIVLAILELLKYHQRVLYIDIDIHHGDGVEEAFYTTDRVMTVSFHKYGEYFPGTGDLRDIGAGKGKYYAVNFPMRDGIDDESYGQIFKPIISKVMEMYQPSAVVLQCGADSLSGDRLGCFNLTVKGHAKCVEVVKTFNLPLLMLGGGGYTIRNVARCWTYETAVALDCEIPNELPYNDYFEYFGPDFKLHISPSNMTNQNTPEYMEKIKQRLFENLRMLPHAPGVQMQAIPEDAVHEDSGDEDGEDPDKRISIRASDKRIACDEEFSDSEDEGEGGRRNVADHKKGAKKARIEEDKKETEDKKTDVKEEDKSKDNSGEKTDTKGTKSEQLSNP

Structure (SMILES) | inhibition [1] | IC50 (Vero) [µM] | Ratio IC50 (LNCaP [2]) | inhibition [3] | IC50 (DU-145) [µM] | IC50 (Histone deacetylase 8) [µM] | IC50 [4] [µM] | IC50 (Histone deacetylase 2) [µM] | inhibition [5] [%] | inhibition [6] | IC50 (LNCaP [7]) [µM] | IC50 (Jurkat) [µM] | solubility [8] | IC50 [9] [µM] | inhibition [10] | inhibition [11] | inhibition [12] | inhibition [13] | inhibition [14] | inhibition [15]
Oc1cccn(CCCCCn2cc(-c3ccccc3)nn2)c1=S | Active | > 20 | 2 | inactive | 9.33 | 0.917 | 1.86 | 5.84 | < 20 | inactive | 5.43 | 3.27 | soluble | 0.911 | inactive | Active | inactive | inactive | inactive | –
N#Cc1cccc(-c2cn(CCCCCn3cccc(O)c3=S)nn2)c1 | Active | > 20 | 3.1 | inactive | 5.03 | – | 0.9 | 3.68 | < 20 | inactive | 3.49 | 3.44 | soluble | – | inactive | – | inactive | inactive | inactive | Active
